Reference: US12023308B2, “Agents for reversing toxic proteinopathies” (THE BROAD INSTITUTE, INC., priority 2019, dated 2024)
Entries after “also recorded” stand apart in the source; their conditions may differ.

Tests used:
Nischarin = target: T1, Nischarin (Homo sapiens, UniProt Q9Y2I1); test: Cellular thermal shift assay (CETSA) for Nischarin in P cells; type: binding; settings: 5 μM, 1 hour
T1 construct: Densitometric analysis of Nischarin abundance after treatment of P cells with BRD-4780 (5 μM, 1 hour) or DMSO; endogenous in cells; host or cells: P cells
T1 sequence (Q9Y2I1 whole entry): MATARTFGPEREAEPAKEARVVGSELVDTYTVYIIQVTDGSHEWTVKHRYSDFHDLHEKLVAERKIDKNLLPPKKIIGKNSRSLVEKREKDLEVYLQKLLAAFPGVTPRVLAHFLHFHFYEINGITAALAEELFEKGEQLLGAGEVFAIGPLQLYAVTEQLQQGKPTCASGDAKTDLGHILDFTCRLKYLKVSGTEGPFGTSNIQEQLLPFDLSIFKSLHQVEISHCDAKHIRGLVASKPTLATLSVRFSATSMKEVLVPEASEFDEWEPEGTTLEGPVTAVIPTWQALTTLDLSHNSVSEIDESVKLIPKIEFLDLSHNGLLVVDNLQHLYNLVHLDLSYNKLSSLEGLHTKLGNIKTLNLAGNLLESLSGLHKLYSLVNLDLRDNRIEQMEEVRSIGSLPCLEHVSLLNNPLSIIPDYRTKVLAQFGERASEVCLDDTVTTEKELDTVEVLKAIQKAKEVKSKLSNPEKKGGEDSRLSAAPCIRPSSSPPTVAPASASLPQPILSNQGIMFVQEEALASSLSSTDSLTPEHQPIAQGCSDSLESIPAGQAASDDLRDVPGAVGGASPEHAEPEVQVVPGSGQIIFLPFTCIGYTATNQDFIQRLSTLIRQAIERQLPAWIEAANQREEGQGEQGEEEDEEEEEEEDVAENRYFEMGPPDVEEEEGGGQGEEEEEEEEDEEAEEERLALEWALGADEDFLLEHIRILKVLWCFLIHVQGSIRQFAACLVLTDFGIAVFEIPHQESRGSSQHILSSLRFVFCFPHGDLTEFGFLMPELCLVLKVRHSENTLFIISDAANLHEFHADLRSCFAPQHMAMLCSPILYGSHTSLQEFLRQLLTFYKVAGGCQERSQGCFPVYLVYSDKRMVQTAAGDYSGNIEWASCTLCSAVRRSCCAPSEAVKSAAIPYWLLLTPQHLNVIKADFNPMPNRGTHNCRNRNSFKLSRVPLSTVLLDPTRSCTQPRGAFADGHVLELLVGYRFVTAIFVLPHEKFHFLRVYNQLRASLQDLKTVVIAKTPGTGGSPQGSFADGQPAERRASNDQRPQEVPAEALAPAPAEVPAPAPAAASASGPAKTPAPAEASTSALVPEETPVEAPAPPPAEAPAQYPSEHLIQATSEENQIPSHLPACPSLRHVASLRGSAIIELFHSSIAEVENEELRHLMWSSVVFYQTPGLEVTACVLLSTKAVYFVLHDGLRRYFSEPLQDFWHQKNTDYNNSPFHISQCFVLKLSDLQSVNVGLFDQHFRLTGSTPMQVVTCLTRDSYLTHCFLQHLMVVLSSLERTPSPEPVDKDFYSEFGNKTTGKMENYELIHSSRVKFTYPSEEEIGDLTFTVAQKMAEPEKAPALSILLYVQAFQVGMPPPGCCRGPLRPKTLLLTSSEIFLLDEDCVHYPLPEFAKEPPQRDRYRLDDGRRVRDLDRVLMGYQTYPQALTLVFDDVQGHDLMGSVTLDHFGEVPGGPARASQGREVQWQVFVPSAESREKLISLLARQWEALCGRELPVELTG
Description: CETSAs were performed as previously described (Jafari et al., 2014; Reinhard et al., 2015). In brief, P cells were treated in the presence or absence of BRD-4780 for 1 hr, harvested (trypsinized), washed in PBS, resuspended in PBS (containing protease inhibitors) and distributed in 0.2 ml PCR tubes (100 μl; 600,000 cells). Cells were incubated at their designated temperatures for 3 min, then at 25° C. for 3 min and lysed by the addition of 1% NP-40. Immediately thereafter, samples were snap frozen and thawed using thermal cycler set at 25° C. Samples were spun at 20′000×g for 20 min (4° C.) to remove precipitated protein and the supernatant was analyzed by Western blot to examine the TMED9/Nischarin thermal stability.

[1] = test system: N cells expressing P23H mutant rhodopsin; test: Cell death (DRAQ7) in N cells expressing P23H mutant rhodopsin; type: cell-based, human; settings: 5 μM, 72 hours
Description: To study apoptosis and cell death in N and P cells, 384 well Cell Carrier Ultra plates (6057308, Perkin Elmer), pre-coated with 0.25 mg/mL Synthemax II SC Substrate (3535, Corning) were used. For UPR branch activation experiments (FIGS. 2B, 9I, 9J and 9G) N and P cells were treated as described in the corresponding figure legends. CellEvent Caspase-3/7 Green Detection Reagent (C10423, Thermo Fisher Scientific®) and DRAQ7 (DR71000, Biostatus) were used at 1:5000 to monitor apoptosis and cell death respectively. Cells were imaged daily during 4 days to monitor viability and image analysis was performed as described below. For rescue experiments, P cells were plated on 96 well Cell Carrier Ultra microplates (6055302, Perkin Elmer) at 30,000 cells/well and cultured for 24 hr. […]
Caspase 3/7 activation and/or DRAQ7 staining were used to calculate the fraction of cells going through apoptosis and/or cell death, respectively. Single cells were first identified using the digital phase contrast channel and cell number was calculated. Fluorescence intensities were then measured and the threshold for Caspase 3/7 and DRAQ7 positive staining was determined. As an output, the fraction of live (neither caspase3/7 nor DRAQ7 signal detected), apoptotic (caspase3/7 positive) or dead cells (DRAQ7 positive) was calculated in each well at a particular time point.

[2] = Plasma protein binding (equilibrium dialysis); type: in vitro ADME
Description: Plasma protein binding was determined by equilibrium dialysis using a Rapid Equilibrium Dialysis (RED) device (Pierce Biotechnology). Each compound was prepared in duplicate at 5 μM in plasma (0.95% acetonitrile, 0.05% DMSO) and added to one side of the membrane with PBS pH 7.4 added to the other side. Compounds were incubated at 37° C. for 5 hr with a 350 rpm orbital shake. After incubation, an aliquot was taken from each side of the membrane and quenched by adding acetontrile to a 3:1 ratio (v/v, ACN:plasma). After quenching, samples were centrifuged (32×G) to pellet precipitated particulates and an aliquot of supernatant was diluted 50/50 (v/v) with water. The resulting solution was analyzed by UPLC-MS/MS with compounds detected by MRM detection on a triple quadrupole mass spectrometer. The compound peak area on the buffer side of the membrane was compared to the peak area on the plasma side of the membrane to determine percent bound. Percent bound in plasma was calculated through the following equations: % free=[area (buffer)/area (plasma)]×100. % bound=100−% free.

[3] = Dose response exposure PK study in male 129-ELITE mice; type: in vivo, mouse; settings: single p.o. doses
Description: 4) A pharmacokinetic study was performed by Charles River Labs (CRL) (Worcester, Mass., USA) in fed male 129-ELITE mice (study EF-0024-DA-MI) to determine the dose response exposure of BRD-4780, BRD-1365 and BRD-7709 in plasma, kidney, liver and eye. Brain exposure to BRD-4780 at 30 mg/kg was also evaluated A single dose of BRD-4780 was administered at 30.0 mg/kg or 100 mg/kg orally (p.o) in a clear solution of 5% dextrose in water (D5W). For BRD-1365 and BRD-7709, a single dose of either compound was administered at 10.0 mg/kg, 30.0 mg/kg, 50.0 mg/kg or 100 mg/kg orally (p.o) in a clear solution of 5% dextrose in water (D5W). Blood, kidney, liver and eye tissue were collected from n=3 mice per dose group at six time points post p.o. dose administration (1, 2, 6, 10, 16 and 24 hours) with all three compounds. Brain tissue was collected from n=3 mice per dose group at six time points post p.o. dose administration (1, 2, 6, 10, 16 and 24 hours) with BRD-4780 at 30 mg/kg. Plasma obtained by centrifugation and tissue fragments were homogenized. Plasma and tissue drug concentration was determined by LC-MS/MS and reported as drug concentration in ng/mL for plasma and ng/mg for kidney, liver and eye tissue, plotted as the mean±standard deviation concentration for males for BRD-4780 ([…]), BRD-1365 (FIG. 11K) and BRD-7709 (FIG. 11M). Standard pharmacokinetic parameters were calculated for males for BRD-4780 ([…]), BRD-1365 (FIG. 11O) and BRD-7709 (FIG. 11P).

[4] = Liver microsomes stability; type: in vitro ADME
Description: Stability was determined at 37° C. at 1 hour in liver microsomes. Each compound was prepared in duplicate at 1 μM in liver microsomes diluted 50/50 (v/v) with PBS pH 7.4. After addition of compounds to microsome mixture, the plate was sealed and vortexed and 100 µL of each sample was added to 3004 acetonitrile (with internal standard). Assay plate was incubated at 37° C. for 1 hr with a 350 rpm orbital shake, and following the hour 1004 of each sample was added to 300 μL acetonitrile (with internal standard). After quenching, samples were refrigerated for at least 1 hour. The samples were centrifuged (32×G) to pellet precipitated particulates and an aliquot of supernatant was diluted 50/50 (v/v) with water. The resulting solution was analyzed by UPLC-MS/MS with compounds detected by MRM detection on a triple quadrupole mass spectrometer. The compound peak areas in the 0 and 1 hour samples, -NADPH sample, and no compound control sample were compared to determine a percent remaining. Percent remaining in microsomes was calculated through the following equation: % remaining=[area (1 hr)/area (0 hr)]×100. (LC System, Waters Acquity I-Class; MS System, AB Sciex Triple Quad 4500; Column, Waters Acquity UPLC BEH C18, 1.7 μm, 2.1×50 mm; Mobile Phase A, Water with 0.1% formic acid; Mobile Phase B, Acetonitrile with 0.1% formic acid; Flow Rate, 0.90 mL/min; Column Temperature, 55° C.).

Plasma stability = type: in vitro ADME
Description: Plasma stability was determined at 37° C. at 5 hr in plasma. Each compound was prepared in duplicate at 5 μM in plasma diluted 50/50 (v/v) with PBS pH 7.4 (0.95% acetonitrile, 0.05% DMSO). Duplicate plates were prepared. One plate was incubated at 37° C. for 5 hr with a 350 rpm orbital shake, while the other plate was immediately quenched. Each well was quenched by adding acetonitrile to a 3:1 ratio (v/v, ACN/plasma). After quenching, samples were centrifuged (32×G) to pellet precipitated particulates and an aliquot of supernatant was diluted 50/50 (v/v) with water. The resulting solution was analyzed by UPLC-MS/MS with compounds detected by MRM detection on a triple quadrupole mass spectrometer. The compound peak areas at 0 and 5 hr were compared to determine a percent remaining. Percent remaining in plasma was calculated through the following equation: % remaining=[area (5 hr)/area (0 hr)]×100. (LC System, Waters Acquity I-Class; MS System, AB Sciex Triple Quad 4500; Column, Waters Acquity UPLC BEH C18, 1.7 μm, 2.1×50 mm; Mobile Phase A, Water with 0.1% formic acid; Mobile Phase B, Acetonitrile with 0.1% formic acid; Flow Rate, 0.90 mL/min; Column Temperature, 55° C.).

CC(C)[C@@H]1[C@H]2CC[C@H](C2)[C@H]1N (racemic) [BRD-4780, 2-endo-amino-3-exo-isopropylbicyclo[2.2.1]heptane]
Nischarin thermal stability / engagement (CETSA) (Nischarin): no evidence indicative of direct engagement; also recorded: did not bind Nischarin | viability of cells expressing P23H mutant [1]: significantly improved | protein binding (in words) [2]: low protein binding | estimated percent protein bound ([2]; plasma): 29.7% | dose proportionality of AUC exposures [3]: not dose proportional | microsomal stability [4]: good microsomal and plasma stability | plasma stability (Plasma stability): good microsomal and plasma stability
